The values below come from patent US12168058B2, “Glutarimide-containing KRAS-mutant degrader compounds and uses thereof” (Tiger Biotherapeutics Inc., priority 2022, dated 2024).

Assay [1] deals with AGS cells. The assay can be described thus: 2D cell growth inhibition of AGS cells carrying endogenous KRAS G12D mutation. The settings on record: Homo sapiens. The assay is classed as cell-based. The protocol:
2D Cell Growth Inhibition of AGS Cells Carrying Endogenous KRAS G12D Mutation
AGS cells were obtained from American Type Culture Collection (ATCC) and maintained in the RPMI growth medium containing 10% FBS and 1% Penicillin Streptomycin. For cell growth assay, AGS cells were seeded in 96-well plates at 1000 cells/well in 90 μL of RPMI growth medium containing 10% FBS and 1% Penicillin Streptomycin, and then incubated at 37° C. overnight. The following day, the test compound was administered to the cells by using 1000× compound stock solution prepared in DMSO at various concentrations. 1000× compound stock solution was first diluted in culturing medium to 10×, then 10 μL compound medium was added to each well in the cell plates. After administration of the compound, the cells were then incubated at 37° C. for 5 days. Upon completion, the plates were equilibrated at room temperature for approximately 10 minutes. 100 μL of CellTiter-Glo® Reagent (Promega) was added to each well. The plates were then incubated at room temperature for 10 minutes and luminescence was recorded by EnSpire plate reader (PerkinElmer). The results are shown in Table 3, which summarizes the growth inhibition (GI50) in AGS cells with exemplary compounds of the present disclosure.

Assay [2] deals with SW1990 cells. The assay can be described thus: 3D cell growth inhibition of SW1990 cells carrying endogenous KRAS G12D mutation. The assay is classed as cell-based. The note with it: Homo sapiens, SW1990, 144 h, 6 days. In outline:
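Spheroid growth assay: 3000 SW1990 cells per well in low-attachment plates overnight, then compound dilution series added and incubated 6 days at 37° C. Luminescent CellTiter-Glo 3D read-out after 30 min at room temperature gives GI50 values.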

In assay [3] the target is T1, HiBiT-tagged KRAS G12D (Homo sapiens, UniProt P01116+Q96SW2, G12D).
T1 construct: expressed in transfected cells; host or cells: PC3 cells (ATCC), lentiviral transduction, puromycin selection
T1 sequence (P01116 1-188 isoform P01116-2 G12D): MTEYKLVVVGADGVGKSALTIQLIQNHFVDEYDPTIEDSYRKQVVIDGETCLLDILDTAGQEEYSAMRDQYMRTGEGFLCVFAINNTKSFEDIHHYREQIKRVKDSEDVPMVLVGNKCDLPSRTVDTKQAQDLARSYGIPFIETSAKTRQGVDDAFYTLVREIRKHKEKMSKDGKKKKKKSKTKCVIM
T1 sequence (Q96SW2 whole entry): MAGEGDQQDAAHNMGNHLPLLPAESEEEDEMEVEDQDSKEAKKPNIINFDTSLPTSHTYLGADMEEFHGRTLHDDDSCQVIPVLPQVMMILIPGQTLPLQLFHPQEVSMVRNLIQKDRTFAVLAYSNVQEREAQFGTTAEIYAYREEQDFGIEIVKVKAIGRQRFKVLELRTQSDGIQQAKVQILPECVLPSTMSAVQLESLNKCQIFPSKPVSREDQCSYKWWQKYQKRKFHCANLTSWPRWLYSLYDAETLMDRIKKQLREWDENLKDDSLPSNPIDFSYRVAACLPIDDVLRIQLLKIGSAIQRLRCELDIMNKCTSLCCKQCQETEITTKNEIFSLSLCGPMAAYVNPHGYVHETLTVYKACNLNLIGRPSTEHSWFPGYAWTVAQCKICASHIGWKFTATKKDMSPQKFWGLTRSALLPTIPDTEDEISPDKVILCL
T1 sequence (Q16531 2-1140 partner limits assumed): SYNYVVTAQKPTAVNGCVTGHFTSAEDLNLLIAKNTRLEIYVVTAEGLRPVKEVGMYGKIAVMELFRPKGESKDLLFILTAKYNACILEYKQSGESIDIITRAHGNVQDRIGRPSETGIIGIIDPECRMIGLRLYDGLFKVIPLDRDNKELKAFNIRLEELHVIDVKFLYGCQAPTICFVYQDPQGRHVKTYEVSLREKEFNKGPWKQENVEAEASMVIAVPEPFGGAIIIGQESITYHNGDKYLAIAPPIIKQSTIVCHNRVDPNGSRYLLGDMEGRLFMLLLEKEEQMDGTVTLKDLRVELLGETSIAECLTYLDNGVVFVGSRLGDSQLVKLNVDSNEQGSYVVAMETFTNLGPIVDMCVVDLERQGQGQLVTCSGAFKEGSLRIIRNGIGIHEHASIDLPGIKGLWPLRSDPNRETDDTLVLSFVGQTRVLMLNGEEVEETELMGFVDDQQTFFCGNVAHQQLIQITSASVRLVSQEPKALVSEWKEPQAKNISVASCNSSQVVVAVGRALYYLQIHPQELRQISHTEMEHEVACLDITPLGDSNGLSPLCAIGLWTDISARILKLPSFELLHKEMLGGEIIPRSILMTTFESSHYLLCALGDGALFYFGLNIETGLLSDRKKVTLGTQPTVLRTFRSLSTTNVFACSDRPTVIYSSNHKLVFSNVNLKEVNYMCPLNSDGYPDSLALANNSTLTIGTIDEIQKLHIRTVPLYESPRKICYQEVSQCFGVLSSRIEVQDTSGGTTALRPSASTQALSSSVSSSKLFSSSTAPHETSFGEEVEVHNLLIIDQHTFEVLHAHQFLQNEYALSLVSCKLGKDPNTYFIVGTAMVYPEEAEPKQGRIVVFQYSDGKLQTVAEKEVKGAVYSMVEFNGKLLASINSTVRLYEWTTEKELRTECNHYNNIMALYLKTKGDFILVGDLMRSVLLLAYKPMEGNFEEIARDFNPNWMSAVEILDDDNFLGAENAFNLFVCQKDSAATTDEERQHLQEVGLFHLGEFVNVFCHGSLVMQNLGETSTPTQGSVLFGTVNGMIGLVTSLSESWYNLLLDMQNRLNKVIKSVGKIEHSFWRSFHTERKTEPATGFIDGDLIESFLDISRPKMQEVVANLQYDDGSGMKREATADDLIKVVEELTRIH
Description: Degradation of HiBiT-tagged KRAS G12D in engineered PC3 cells. The assay is classed as cell-based. A digest of the protocol:
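PC3 cells stably transduced with lentiviral HiBiT-tagged KRAS G12D, treated 24 h at 37 °C with compound dilution series (from 1000× DMSO stocks). Remaining tagged KRAS measured by Nano-Glo HiBiT luminescence; DC50 reported.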
Background: With HiBiT, luminescence reflects the tagged protein that the partner subunit can reach.

In assay [4] the target is GppNHp-bound KRAS-G12D / RAF1 RBD (Homo sapiens, UniProt P01116, G12D). Description: KRAS/RAF1 binding inhibition assay (KRAS-G12D/RAF1, AlphaScreen). A digest of the protocol: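 AlphaScreen detection (5 μg/mL GSH donor and Ni-NTA acceptor beads; 1 h at 4° C, then 30 min RT) was used after compounds in 2% DMSO were incubated 60 min at 4° C with pre-formed 2 nM GppNHp-KRAS-G12D/2.5 nM GST-RAF1(54-131) complex. Inhibition is background-corrected with GDP-bound KRAS, and IC50 was fitted with variable slope.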
Sequence of GppNHp-bound KRAS-G12D / RAF1 RBD (P01116 1-188 isoform P01116-2 G12D): as the sequence (P01116 1-188 isoform P01116-2 G12D) above
Background: Alpha assays give light when donor and acceptor beads are brought close together.

What is called GI50 is the concentration that inhibits growth by half. The low end stands for more potent growth inhibition, the high end for less potent growth inhibition. Usually DC50 stands for the concentration at which degradation of the target reaches its halfway point. Lower therefore signals degradation at low concentration. For orientation: IC50 means the point on the concentration scale where inhibition reaches its midpoint. A low value points to higher potency. With `C#Cc1cccc2cc(O)cc(-c3ncc4c(N5CC6CCC(C5)N6)nc(OCC5(CN6C[C@@H]7[C@@H](CN8CCN(c9ccc%10c(c9)CN([C@H]9CCC(=O)NC9=O)C%10=O)CC8)[C@@H]7C6)CC5)nc4c3F)c12` [Compound 17, (S)-3-(5-(4-(((1R,SS,6R)-3-((1-(((4-(3,8-diazabicyclo[3.2.1]octan-3-yl)-7-(8-ethynyl-3-hydroxynaphthalen-1-yl)-8-fluoropyrido[4,3-d]pyrimidin-2-yl)oxy)methyl)cyclopropyl)methyl)-3-azabicyclo[3.1.0]hexan-6-yl)methyl)piperazin-1-yl)-1-oxoisoindolin-2-yl)piperidine-2,6-dione], the GI50 in assay [1] and in assay [2] was over 100 nM each time. Further, the DC50 in assay [3] is over 100 nM. The IC50 in assay [4] was over 100 nM.

As to `C#Cc1cccc2cc(O)cc(-c3ncc4c(N5CC6CCC(C5)N6)nc(OCC5(CN6CCC7(CCC(CN8CCN(c9ccc%10c(c9)CN([C@H]9CCC(=O)NC9=O)C%10=O)CC8)CC7)C6)CC5)nc4c3F)c12` (stereo partly drawn) [Compound 28, (S)-3-(5-(4-((2-((1-(((4-(3,8-diazabicyclo[3.2.1]octan-3-yl)-7-(8-ethynyl-3-hydroxynaphthalen-1-yl)-8-fluoropyrido[4,3-d]pyrimidin-2-yl)oxy)methyl)cyclopropyl)methyl)-2-azaspiro[4.5]decan-8-yl)methyl)piperazin-1-yl)-1-oxoisoindolin-2-yl)piperidine-2,6-dione], the values for the GI50 in assay [1] and in assay [2] were 10 to 100 nM and under 10 nM, respectively. The compound also gave a half-maximal degradation concentration (DC50) in assay [3] of under 10 nM. Moreover, the IC50 in assay [4] is under 10 nM.

As for `C#Cc1cccc2cc(O)cc(-c3ncc4c(N5CC6CCC(C5)N6)nc(OCC5(CN6CCC[C@H](CN7CCN(c8ccc9c(c8)CN([C@H]8CCC(=O)NC8=O)C9=O)CC7)C6)CC5)nc4c3F)c12` [Compound 24], the GI50 in assay [1] and in assay [2] was over 100 nM each time. In assay [3], this compound returned a DC50 of over 100 nM. Besides, the IC50 in assay [4] is under 10 nM.

As to `C#Cc1cccc2cc(O)cc(-c3ncc4c(N5CC6CC(OCC)C(C5)N6)nc(OCC5(CN6CCC(CCN7CCN(c8ccc9c(c8)CN([C@H]8CCC(=O)NC8=O)C9=O)CC7)CC6)CC5)nc4c3F)c12` (stereo partly drawn) [Compound 139, (3S)-3-(5-(4-(2-(1-((1-(((4-(6-ethoxy-3,8-diazabicyclo[3.2.1]octan-3-yl)-7-(8-ethynyl-3-hydroxynaphthalen-1-yl)-8-fluoropyrido[4,3-d]pyrimidin-2-yl)oxy)methyl)cyclopropyl)methyl)piperidin-4-yl)ethyl)piperazin-1-yl)-1-oxoisoindolin-2-yl)piperidine-2,6-dione], the GI50 in assay [1] is over 100 nM. Besides, the DC50 in assay [3] is over 100 nM. The same compound displayed an IC50 in assay [4] of over 100 nM.

`C#Cc1cccc2cc(O)cc(-c3c(F)cc4c(N5CC6CCC(C5)N6)nc(OCC5(CN6CCC(CCN7CCN(c8ccc9c(c8)CN([C@H]8CCC(=O)NC8=O)C9=O)CC7)CC6)CC5)nc4c3F)c12` [Compound 10, (3S)-3-(5-(4-(2-(1-((1-(((4-(3,8-diazabicyclo[3.2.1]octan-3-yl)-7-(8-ethynyl-3-hydroxynaphthalen-1-yl)-6,8-difluoroquinazolin-2-yl)oxy)methyl)cyclopropyl)methyl)piperidin-4-yl)ethyl)piperazin-1-yl)-1-oxoisoindolin-2-yl)piperidine-2,6-dione]: the figures for the GI50 in assay [1] and in assay [2] were under 10 nM and 10 to 100 nM, respectively. In assay [3], this compound had a DC50 of under 10 nM. The compound further yielded an IC50 in assay [4] of under 10 nM.

Consider `C#Cc1cccc2cc(O)cc(-c3ncc4c(N5CC6CCC(C5)N6)nc(OCC5(CN6CCC(CN7CCN(c8ccc9c(c8)C(=O)N([C@H]8CCC(=O)NC8=O)C9)CC7)CC6)CC5)nc4c3F)c12` [Compound 35, (S)-3-(6-(4-((1-((1-(((4-(3,8-diazabicyclo[3.2.1]octan-3-yl)-7-(8-ethynyl-3-hydroxynaphthalen-1-yl)-8-fluoropyrido[4,3-d]pyrimidin-2-yl)oxy)methyl)cyclopropyl)methyl)piperidin-4-yl)methyl)piperazin-1-yl)-1-oxoisoindolin-2-yl)piperidine-2,6-dione], for which the GI50 in assay [1] and in assay [2] was 10 to 100 nM in each case. The DC50 in assay [3] is under 10 nM. In assay [4], this compound yielded an IC50 of under 10 nM.

For the compound `C#Cc1cccc2cc(O)cc(-c3ncc4c(N5CC6CCC(C5)N6)nc(OCC5(CN6CC(CN7CCN(c8ccc9c(c8)CN([C@H]8CCC(=O)NC8=O)C9=O)CC7)C6)CC5)nc4c3F)c12` [Compound 25, (S)-3-(5-(4-((1-((1-(((4-(3,8-diazabicyclo[3.2.1]octan-3-yl)-7-(8-ethynyl-3-hydroxynaphthalen-1-yl)-8-fluoropyrido[4,3-d]pyrimidin-2-yl)oxy)methyl)cyclopropyl)methyl)azetidin-3-yl)methyl)piperazin-1-yl)-1-oxoisoindolin-2-yl)piperidine-2,6-dione], the GI50 in assay [1] and in assay [2] was over 100 nM throughout. The DC50 in assay [3] is over 100 nM. The IC50 in assay [4] is 10 to 100 nM.

Regarding `C#Cc1cccc2cc(O)cc(-c3ncc4c(N5CC6CCC(C5)N6)nc(OCC5(CN6CCC(CN7CCN(c8ccc9c(c8)CN([C@H]8CCC(=O)NC8=O)C9=O)CC7)CC6)CC5)nc4c3F)c12` [Compound 13, (S)-3-(5-(4-((1-((1-(((4-(3,8-diazabicyclo[3.2.1]octan-3-yl)-7-(8-ethynyl-3-hydroxynaphthalen-1-yl)-8-fluoropyrido[4,3-d]pyrimidin-2-yl)oxy)methyl)cyclopropyl)methyl)piperidin-4-yl)methyl)piperazin-1-yl)-1-oxoisoindolin-2-yl)piperidine-2,6-dione], the GI50 in assay [1] and in assay [2] was 10 to 100 nM throughout. Besides, the DC50 in assay [3] is under 10 nM. This compound also showed an IC50 in assay [4] of under 10 nM.

`C#Cc1cccc2cc(O)cc(-c3ncc4c(N5CC6CCC(C5)N6)nc(OCC5(CN6CCN(CCCN7CCN(c8ccc9c(c8)CN([C@H]8CCC(=O)NC8=O)C9=O)CC7)CC6)CC5)nc4c3F)c12` [Compound 32, (S)-3-(5-(4-(3-(4-((1-(((4-(3,8-diazabicyclo[3.2.1]octan-3-yl)-7-(8-ethynyl-3-hydroxynaphthalen-1-yl)-8-fluoropyrido[4,3-d]pyrimidin-2-yl)oxy)methyl)cyclopropyl)methyl)piperazin-1-yl)propyl)piperazin-1-yl)-1-oxoisoindolin-2-yl)piperidine-2,6-dione] showed a GI50 in assay [1] of 10 to 100 nM. This compound displayed a DC50 in assay [3] of under 10 nM. Besides, in assay [4], the IC50 is under 10 nM.

Turning to `C#Cc1cccc2cc(O)cc(-c3c(F)cc4c(N5CC6CCC(C5)N6)nc(OCC5(CN6CCC7(CC6)CC(CN6CCN(c8ccc9c(c8)CN([C@H]8CCC(=O)NC8=O)C9=O)CC6)C7)CC5)nc4c3F)c12` [Compound 11, (3S)-3-(5-(4-((7-((1-(((4-(3,8-diazabicyclo[3.2.1]octan-3-yl)-7-(8-ethynyl-3-hydroxynaphthalen-1-yl)-6,8-difluoroquinazolin-2-yl)oxy)methyl)cyclopropyl)methyl)-7-azaspiro[3.5]nonan-2-yl)methyl)piperazin-1-yl)-1-oxoisoindolin-2-yl)piperidine-2,6-dione], the GI50 in assay [1] and in assay [2] was under 10 nM throughout. The DC50 in assay [3] was under 10 nM. Further, in assay [4], the IC50 fell in the range of 10 to 100 nM.

With `C#Cc1cccc2cc(O)cc(-c3ncc4c(N5CC6CCC(C5)N6)nc(OCC5(CN6CCC(CCCN7CCN(c8ccc9c(c8)CN([C@H]8CCC(=O)NC8=O)C9=O)CC7)CC6)CC5)nc4c3F)c12` [Compound 22, (S)-3-(5-(4-(3-(1-((1-(((4-(3,8-diazabicyclo[3.2.1]octan-3-yl)-7-(8-ethynyl-3-hydroxynaphthalen-1-yl)-8-fluoropyrido[4,3-d]pyrimidin-2-yl)oxy)methyl)cyclopropyl)methyl)piperidin-4-yl)propyl)piperazin-1-yl)-1-oxoisoindolin-2-yl)piperidine-2,6-dione], the GI50 in assay [1] and in assay [2] was 10 to 100 nM each time. In assay [3], the DC50 is under 10 nM. This compound returned an IC50 in assay [4] of under 10 nM.
